Data: patent US6355426B2, “Methods for the characterization and selection of RNA target motifs that bind compounds of pharmaceutical use” (priority 1996, dated 2002)

Assays:
[1] = test system: E. coli strains DH5a and JM109; experiment: Growth of pGEMR / pGEMR294 transformants on plates with varying concentrations of spectinomycin; type: cell-based; conditions: 37° C.
Experimental: E. coli strains DH5a and JM109 were conventionally transformed with pGP1-2, and were subsequently transformed by pGEMR (control) and pGEMR294 (which contains the 16S sequence) as described above in Example 1D. Transformants were selected on LB agar containing ampicillin (200 ug/mL) and kanamycin ([…]). These transformants were subsequently examined for their ability to grow in the presence of varying concentrations of spectinomycin (5, 10, 15, 20 and 40 ug/mL). Spectinomycin resistant transformants were recovered at 37° C.
By contrast, transformants of pGEMR294 grew in the presence of the drug up to […]. Plasmids isolated from the transformants and used to retransform each strain, confirmed that resistance was indeed plasmid dependent.

[2] = test system: 30S subunits and 3' domain 16S rRNA sub-particle; conditions: 30S subunits and reconstituted 3' domain particle (nucleotides 923-1542 with eight r-proteins); cited from earlier work
E. coli strain DC2 = experiment: Selection of spectinomycin-resistant transformants from a random rRNA fragment library; type: cell-based
Excerpt: Random rDNA fragments were generated by restriction endonuclease digestion of the entire rrnB operon encoding all three rDNAs (16S, 23S and 5S) and the spacer regions using a range and combination of one or more enzymes (including either AluI, HaeIII or DpnI or a double digestion with AluI/DpnI or HaeIII/DpnI) in which recognition sites occurred frequently within the target sequence. The enzymes AluI, HaeIII and DpnI release fragments that can be cloned in either orientation in to the SmaI site on pGEMR.
The fragments were ligated into the SmaI site in pGEMR and used to transform the respective strains. The diversity of RNA fragments within the library was determined by in vitro transcription of radiolabeled transcripts using the RIBOMAXÔ system (Promega), resolution by denaturing gel electrophoresis, and autoradiography according to standard procedures [Sambrook et al, cited above]. Briefly described, to establish that the pool of transformants harbored pGEMR encoding a mixed population of rRNA fragments, the plasmids were isolated, linearized with HindIII and transcribed in vitro with T7 RNA polymerase in the presence of ^32PaUTP. The products were resolved by denaturing gel electrophoresis and visualized by autoradiography. The library consisted of a large number of transcripts, varying in size with an average of 200-500 nucleotides in length. […]

## CN[C@@H]1[C@H](O)[C@H](NC)[C@H]2O[C@@]3(O)C(=O)C[C@@H](C)O[C@H]3O[C@@H]2[C@H]1O [spectinomycin]
[1]; transformants of pGEMR294 (16S rRNA fragment nucleotides 972-1266, helix 34) with pGP1-2
  spectinomycin concentration up to which transformants grew: up to 20 mg/mL
[1]; transformants of pGEMR (control) with pGP1-2
  spectinomycin concentration above which transformants did not survive on plates: above 5 mg/mL
[2]
  binding affinity to 30S subunit versus 3' domain sub-particle (dependence of protection on drug concentration): binds with similar affinity to each particle
E. coli strain DC2; DC2 (pGP1-2) transformed with rRNA fragment library (16S/23S hybrid fragment), after 48 hours incubation at 37° C.
  spectinomycin concentration up to which resistant transformants developed on plates: up to 40 ug/mL
E. coli strain DC2; comparison of transformants expressing 16/23S hybrid RNA with those encoding wild type helix 34 fragment
  level of spectinomycin resistance, transformants expressing 16/23S RNA versus wild type helix 34 fragment: higher level of spectinomycin resistance
